# Like-named read-outs stand apart in the source and are kept apart here.
# Experiments:
# [1] = Probability of Ingredient Color Instability; assay type: physicochemical
# [2] = Liquid dish neat product liquid-air partition coefficient; assay type: physicochemical
# [3] = class code letter within Comment Code
smiles,measurement,setting,value
CC1=CCC(C(C)CC=O)CC1 (stereo not drawn) [Material 159],Probability of Ingredient Color Instability (Comment Code E/F),[1]; [3],F (Probability of Ingredient Color Instability<71%)
same,Log of liquid dish neat product liquid-air partition coefficient (Comment Code K/L),[2]; [3],K (Log of liquid dish neat product liquid-air partition coefficient greater than or equal to −7)
CC(CC=O)CCc1ccccc1 (stereo not drawn) [Material 807],Probability of Ingredient Color Instability (Comment Code E/F),[1],F (Probability of Ingredient Color Instability<71%)
same,Log of liquid dish neat product liquid-air partition coefficient (Comment Code K/L),[2],K (Log of liquid dish neat product liquid-air partition coefficient greater than or equal to −7)
O=C1CCCCCCCCCCCC(=O)OCCO1 [Material 378],Probability of Ingredient Color Instability (Comment Code E/F),[1]; [3],F (Probability of Ingredient Color Instability<71%)
COC(=O)c1ccccc1N=CC(C)Cc1ccc(C(C)(C)C)cc1 (stereo not drawn) [Material 1121],Comment Code: Probability of Ingredient Color Instability,"[1]; codes E/F of the Comment Code, Table 1",F (Probability of Ingredient Color Instability<71%)
CCC(C)(C)C1CCC(=O)CC1 [Material 21],Probability of Ingredient Color Instability (Comment Code E/F),[1]; [3],F (Probability of Ingredient Color Instability<71%)
CCCCCCCCCC=CC=O [Material 806],Probability of Ingredient Color Instability (Comment Code E/F),[1],F (Probability of Ingredient Color Instability<71%)
same,Log of liquid dish neat product liquid-air partition coefficient (Comment Code K/L),[2],K (Log of liquid dish neat product liquid-air partition coefficient greater than or equal to −7)
CCCCCCCC(C)=O [Material 840],Probability of Ingredient Color Instability (Comment Code E/F),[1],F (Probability of Ingredient Color Instability<71%)
CCCCCCC/C=C\CCC=O [Material 1045],Probability of Ingredient Color Instability (Comment Code E/F),[1],F (Probability of Ingredient Color Instability<71%)
same,Log of liquid dish neat product liquid-air partition coefficient (Comment Code K/L),[2],K (Log of liquid dish neat product liquid-air partition coefficient greater than or equal to −7)
COC(=O)c1ccccc1NC(O)CC(C)c1ccccc1 (stereo not drawn) [Material 1093],Probability of Ingredient Color Instability (Comment Code E/F),[1],F (Probability of Ingredient Color Instability<71%)
N#CC(=C1CCCCC1)c1ccccc1 [Material 945],Probability of Ingredient Color Instability (Comment Code E/F),[1],F (Probability of Ingredient Color Instability<71%)
same,Log of liquid dish neat product liquid-air partition coefficient (Comment Code K/L),[2],K (Log of liquid dish neat product liquid-air partition coefficient greater than or equal to −7)
CCCCCC=C1CCCC1=O [Material 850],Probability of Ingredient Color Instability (Comment Code E/F),[1],F (Probability of Ingredient Color Instability<71%)
COc1c2ccoc2c(OC)c2oc(=O)ccc12 [Material 199],Probability of Ingredient Color Instability (Comment Code E/F),[1]; [3],F (Probability of Ingredient Color Instability<71%)
CC1(C)C2CC=C(CC=O)C1C2 (stereo not drawn) [Material 973],Probability of Ingredient Color Instability (Comment Code E/F),[1],F (Probability of Ingredient Color Instability<71%)
O=C1CCCCCCCCCCC(=O)OCCO1 [Material 485],Probability of Ingredient Color Instability (Comment Code E/F),[1]; [3],F (Probability of Ingredient Color Instability<71%)
CC=Cc1ccc(OCc2ccccc2)c(OC)c1 [Material 212],Probability of Ingredient Color Instability (Comment Code E/F),[1]; [3],F (Probability of Ingredient Color Instability<71%)
CC(C)=CCCC(C)=CCOC(=O)Cc1ccccc1 [Material 300],Probability of Ingredient Color Instability (Comment Code E/F),[1]; [3],F (Probability of Ingredient Color Instability<71%)
CCCCCCCC1CCCC1=O (stereo not drawn) [Material 362],Probability of Ingredient Color Instability (Comment Code E/F),[1]; [3],F (Probability of Ingredient Color Instability<71%)
CCCCCCC(=O)CC [Material 394],Probability of Ingredient Color Instability (Comment Code E/F),[1]; [3],F (Probability of Ingredient Color Instability<71%)
Cc1ccc(OC(=O)Cc2ccccc2)cc1 [Material 998],Probability of Ingredient Color Instability (Comment Code E/F),[1],F (Probability of Ingredient Color Instability<71%)
C=CC(C)(O)CCC=C(C)CCC=C(C)CCC=C(C)C (stereo not drawn) [Material 303],Probability of Ingredient Color Instability (Comment Code E/F),[1]; [3],F (Probability of Ingredient Color Instability<71%)
CC1(C)C2CC=C(C=O)C1C2 (stereo not drawn) [Material 70],Probability of Ingredient Color Instability (Comment Code E/F),[1]; [3],F (Probability of Ingredient Color Instability<71%)
CC1=CCC(C23CCCC(C)(C2)OC3)C1(C)C (stereo not drawn) [Material 571],Probability of Ingredient Color Instability (Comment Code E/F),[1],F (Probability of Ingredient Color Instability<71%)
CCC(C)CCCC(C)C=O (stereo not drawn) [Material 866],Probability of Ingredient Color Instability (Comment Code E/F),[1],F (Probability of Ingredient Color Instability<71%)
CCC(=O)OCC(=O)OC(C)C1CCCC(C)(C)C1 (stereo not drawn) [Material 1009],Probability of Ingredient Color Instability (Comment Code E/F),[1],F (Probability of Ingredient Color Instability<71%)
C/C=C/CCC1CCCC(=O)O1 (stereo not drawn) [Material 187],Probability of Ingredient Color Instability (Comment Code E/F),[1]; [3],F (Probability of Ingredient Color Instability<71%)
C=CC(C)(CCC=C(C)C)OC(=O)c1ccccc1N (stereo not drawn) [Material 153],Probability of Ingredient Color Instability (Comment Code E/F),[1]; [3],F (Probability of Ingredient Color Instability<71%)
CC1=CC(C)C(C=O)C(C)C1 (stereo not drawn) [Material 218],Probability of Ingredient Color Instability (Comment Code E/F),[1]; [3],F (Probability of Ingredient Color Instability<71%)
CC1COC(C)(c2ccc3c(c2)C(C)(C)CCC3(C)C)O1 (stereo not drawn) [Material 2],Probability of Ingredient Color Instability (Comment Code E/F),[1]; [3],F (Probability of Ingredient Color Instability<71%)
CCCCCCC1CCCC1=O (stereo not drawn) [Material 189],Probability of Ingredient Color Instability (Comment Code E/F),[1]; [3],F (Probability of Ingredient Color Instability<71%)
CCCCCCCCCC(C)=O [Material 102],Probability of Ingredient Color Instability (Comment Code E/F),[1]; [3],F (Probability of Ingredient Color Instability<71%)
CCCCCC1C(=O)CCC1C (stereo not drawn) [Material 1053],Probability of Ingredient Color Instability (Comment Code E/F),[1],F (Probability of Ingredient Color Instability<71%)
CC1=CCCC(C)(C)C12CCC(C)O2 (stereo not drawn) [Material 1057],Probability of Ingredient Color Instability (Comment Code E/F),[1],F (Probability of Ingredient Color Instability<71%)
CCCCCCCCC(C)C=O (stereo not drawn) [Material 92],Probability of Ingredient Color Instability (Comment Code E/F),[1]; [3],F (Probability of Ingredient Color Instability<71%)
CCCCCCC1=CCCC1=O [Material 209],Probability of Ingredient Color Instability (Comment Code E/F),[1]; [3],F (Probability of Ingredient Color Instability<71%)
C=CC(C)(CCC=C(C)C)OC(=O)c1ccccc1 (stereo not drawn) [Material 152],Probability of Ingredient Color Instability (Comment Code E/F),[1]; [3],F (Probability of Ingredient Color Instability<71%)
O=C(OC1CCCCC1)c1ccccc1O [Material 482],Probability of Ingredient Color Instability (Comment Code E/F),[1]; [3],F (Probability of Ingredient Color Instability<71%)
O=CC1CCC2C3CCC(C3)C12 (stereo not drawn) [Material 130],Probability of Ingredient Color Instability (Comment Code E/F),[1]; [3],F (Probability of Ingredient Color Instability<71%)
CCCCCCCCCCOC(=O)CC [Material 471],Log of liquid dish neat product liquid-air partition coefficient (Comment Code K/L),[2]; [3],K (Log of liquid dish neat product liquid-air partition coefficient greater than or equal to −7)
CC(=O)c1oc2ccccc2c1C [Material 61],Log of liquid dish neat product liquid-air partition coefficient (Comment Code K/L),[2]; [3],K (Log of liquid dish neat product liquid-air partition coefficient greater than or equal to −7)
CC(=O)OC12CCCC(C)(CCC3C1CC3(C)C)C2 (stereo not drawn) [Material 573],Log of liquid dish neat product liquid-air partition coefficient (Comment Code K/L),[2],K (Log of liquid dish neat product liquid-air partition coefficient greater than or equal to −7)
same,Comment Code: Log of liquid dish neat product liquid-air partition coefficient,"[2]; code letters K, L",K (Log of liquid dish neat product liquid-air partition coefficient greater than or equal to −7)
COC1(OC)CCCCCCCCCCC1 [Material 10],Log of liquid dish neat product liquid-air partition coefficient (Comment Code K/L),[2]; [3],K (Log of liquid dish neat product liquid-air partition coefficient greater than or equal to −7)
CC1=CCC(CCC(C)C(C)O)C1(C)C (stereo not drawn) [Material 1023],Log of liquid dish neat product liquid-air partition coefficient (Comment Code K/L),[2],K (Log of liquid dish neat product liquid-air partition coefficient greater than or equal to −7)
C=C(C)C1CC=C(C)C(O)C1 (stereo not drawn) [Material 531],Log of liquid dish neat product liquid-air partition coefficient (Comment Code K/L),[2]; [3],K (Log of liquid dish neat product liquid-air partition coefficient greater than or equal to −7)
COc1ccc(COC(=O)Cc2ccccc2)cc1 [Material 663],Probability of Ingredient Color Instability (Comment Code E/F),[1],F (Probability of Ingredient Color Instability<71%)
CC(C)c1cccc(C(C)CC=O)c1 (stereo not drawn) [Material 914],Log of liquid dish neat product liquid-air partition coefficient (Comment Code K/L),[2],K (Log of liquid dish neat product liquid-air partition coefficient greater than or equal to −7)
CC=Cc1ccc(OC(C)=O)c(OC)c1 [Material 213],Comment Code: Log of liquid dish neat product liquid-air partition coefficient,"[2]; code letters K, L",K (Log of liquid dish neat product liquid-air partition coefficient greater than or equal to −7)
C=CC1(C)CCC(C(C)(C)O)O1 (stereo not drawn) [Material 155],Log of liquid dish neat product liquid-air partition coefficient (Comment Code K/L),[2]; [3],K (Log of liquid dish neat product liquid-air partition coefficient greater than or equal to −7)
CC1(C)C2CCC3(C2)C1C1(CCC3(C)C)OCCO1 (stereo not drawn) [Material 1145],Comment Code: Log of liquid dish neat product liquid-air partition coefficient,"[2]; code letters K, L",K (Log of liquid dish neat product liquid-air partition coefficient greater than or equal to −7)
same,Comment Code: Log of liquid dish neat product liquid-air partition coefficient,"[2]; codes K/L of the Comment Code, Table 1",K (Log of liquid dish neat product liquid-air partition coefficient greater than or equal to −7)
CCc1ccccc1CC(C)(C)C=O [Material 356],Log of liquid dish neat product liquid-air partition coefficient (Comment Code K/L),[2]; [3],K (Log of liquid dish neat product liquid-air partition coefficient greater than or equal to −7)
CCC(=O)OC(C)c1ccccc1 (stereo not drawn) [Material 96],Comment Code: Log of liquid dish neat product liquid-air partition coefficient,"[2]; code letters K, L",K (Log of liquid dish neat product liquid-air partition coefficient greater than or equal to −7)
CCC(=O)OC1CC2CCC1(C)C2(C)C (stereo not drawn) [Material 228],Log of liquid dish neat product liquid-air partition coefficient (Comment Code K/L),[2]; [3],K (Log of liquid dish neat product liquid-air partition coefficient greater than or equal to −7)
CCCCCCCCCCO [Material 868],Log of liquid dish neat product liquid-air partition coefficient (Comment Code K/L),[2],K (Log of liquid dish neat product liquid-air partition coefficient greater than or equal to −7)
CC(=O)OCC=Cc1ccccc1 [Material 553],Log of liquid dish neat product liquid-air partition coefficient (Comment Code K/L),[2]; [3],K (Log of liquid dish neat product liquid-air partition coefficient greater than or equal to −7)
CC1=CCOC(c2ccccc2)C1 (stereo not drawn) [Material 1016],Log of liquid dish neat product liquid-air partition coefficient (Comment Code K/L),[2],K (Log of liquid dish neat product liquid-air partition coefficient greater than or equal to −7)
CC1COCc2cc3c(cc21)C(C)(C)C(C)C3(C)C (stereo not drawn) [Material 335],Log of liquid dish neat product liquid-air partition coefficient (Comment Code K/L),[2]; [3],K (Log of liquid dish neat product liquid-air partition coefficient greater than or equal to −7)
same,Comment Code: Log of liquid dish neat product liquid-air partition coefficient,"[2]; code letters K, L",K (Log of liquid dish neat product liquid-air partition coefficient greater than or equal to −7)

# From US20160090556A1, “PRODUCTS COMPRISING MALODOR REDUCTION MATERIALS” (The Procter & Gamble Company, priority 2014, published 2016)
